Results as given in patent publication US8426338B2, “Chelating agents for micronutrient fertilisers” (Adelaide Research and Innovation Pty Ltd, priority 2005, dated 2013).

Assays:
[1] = system: Canola; experiment: Pot experiment: Zn fertiliser uptake by canola on alkaline and calcareous soils; format: in vivo, Canola (variety Pinnacle); settings: 21 days growth, chelate rates PEI 0.043, EDTA 0.37 μM/g soil, FIG. 1
Text: A pot experiment was designed to test the availability of Zn to Canola when applied to calcareous and alkaline soils either as ZnSO4.7H2O or chelated with PEI or EDTA.
Soil samples were collected from field sites known to be Zn responsive at Streaky Bay, South Australia and Birchip, Victoria (Table 1). Topsoils from each location were collected, oven dried and passed through a 2 mm sieve. The ^65Zn labelled experimental fertilisers were mixed with 20 g of soil, which was banded between 100 g of the unfertilised bulk soil. Total nutrient application equated to (μg/g soil) P 60, N 27, applied as TGMAP, and Zn 0.2 as ZnSO4.7H2O. Chelate rates were based on the concentrations required to complex 100% of the Zn in the fertiliser solution. Rates varied depending on the stoichiometry of the Zn-ligand complexes. GEOCHEM was used to predict the degree of chelation in the EDTA fertiliser solution. […]
Two pre-germinated Canola seeds (variety Pinnacle) were transferred to each pot. […] Plant digests were analysed for ^65Zn by gamma spectroscopy and for total nutrient contents by ICP-OES.
Data for shoot dry weight, shoot nutrient concentrations and Zn fertiliser uptake were analysed by analysis of variance (ANOVA). Significance between means was determined using the Least Significant Difference (LSD) test.

[2] = system: canola roots; experiment: Uptake of 65Zn from ice-cold solutions into canola roots (apoplast and symplast); format: in vivo; settings: 30 minutes, FIG. 4
Method: Each treatment was replicated in triplicate. After 30 minutes the canola roots were removed from the uptake solutions and rinsed with MilliQ water. Those roots used to measure symplastic absorption of Zn were transferred to ice-cold desorption solutions for 30 minutes in order to desorb apoplastically bound Zn. Desorption solutions contained 2 mM Na-MES (pH 6.0), 5 mM CaCl2 and 60 μM ZnCl2. Canola plants were separated into roots and shoots, blotted dry and weighed. Roots were transferred into radioactivity counting vials, to which 4 ml of 5M HNO3 was added. Samples were left overnight to solubilise the cell contents before the ^65Zn contents of roots were determined by gamma spectroscopy.

[3] = system: Canola seedlings; settings: 1 μM ZnSO4; 24-hour uptake; FIG. 6, FIG. 7
Method: Canola seedlings (Brassica napus var. Pinnacle) were pre-germinated on filter paper moistened with deionised water. On day 6, the seedlings were transferred to complete nutrient solution and moved into the glasshouse. The nutrient solution contained Ca (3.55 mM), Mg (1.45 mM), NO3^− (8.1 mM), H2PO4^− (0.2 mM), Cl (10 μM), Na (1.1 mM), K (1.2 mM), SO4 (1.45 mM), H3BO3 (30 μM), MoO4^2− (0.2M), FeEDDHA (25 μM), Mn (10 μM), Zn (1 μM), Cu (1 μM), buffered at pH 6.0 with 2 mM MES (2-morpholinoethanesulphonic acid, 50% as potassium salt) (Kupper et al, 2000). After 14 days, the canola plants, three per pot, were transferred to pre-treatment solution for 24 hours. Pre-treatment solution contained 2 mM NaMES (pH 6.0) and 0.5 mM CaCl2. Following pre-treatment, the plants were used in the ^65Zn uptake experiments.
Pre-treated canola seedlings were transferred to uptake solutions containing 2 mM KMES (pH 6.0), 0.5 mM CaCl2 and 1 μM ZnSO4 as either the metal salt or chelated with EDTA (control) or the eight forms of PEI described above. […]
After a 24-hour uptake period, canola shoots were harvested, weighed and digested in concentrated HNO3 at 140° C. Digest solutions were transferred to radioactivity counting vials for ^65Zn measurement by gamma spectroscopy. […]

O=C(O)CN(CCN(CC(=O)O)CC(=O)O)CC(=O)O [EDTA, ethylenediaminetetraacetic acid]
Total Zn uptake by canola ([1]; Birchip Sodosol): ineffective | Total Zn uptake by canola ([1]; Streaky Bay calcareous grey sandy loam): ineffective | Uptake of Zn into the root symplast ([2]; 10 μM ZnCl2 chelated by 10 μM EDTA or 5 μM PEI): not readily absorbed | Uptake of Zn into the root apoplast ([2]; 10 μM ZnCl2 chelated by 10 μM EDTA): not readily absorbed | Zn absorption and translocation to canola shoots (Zn transfer coefficient) [3]: not readily absorbed and translocated to canola shoots
